According to patent US20070244110A1, “Treatment of prostate cancer, melanoma or hepatic cancer” (ZENYAKU KOGYO KABUSHIKI KAISHA, priority 2006, published 2007):

Legend:
B16F10 melanoma cells = assay: In vitro anti-tumor experiment, growth inhibition of B16F10 cells; type: cell-based; conditions: Mus musculus, B16-F10; B16F10, 72 hours incubation
Description: (§1) Hepatoma HepG2 cells were cultured in a MEM culture medium (containing 10% fetal bovine serum, 25 mM HEPES and 0.1 mg/ml kanamycin) under conditions of 5% carbon dioxide at 37° C. HepG2 cells were harvested as single free cells by a tripsin/EDTA treatment in the logarithmic growth phase, and a cell suspension solution consisted of 2×10^4 cells per ml was prepared with MEM culture medium (containing 10% fetal bovine serum, 25 mM HEPES and 0.1 mg/ml kanamycin). The test compound was dissolved in DMSO, then diluted with RPMI1640 culture medium (containing 10% fetal bovine serum, 25 mM HEPES, 0.1 mg/ml kanamycin), and adjusted to a concentration of 2.0×10^−9 to 2.0×10^−3 M.
(§2) 0.1 ml of the cell suspension solution was put in each well of a 96-well plate, then cultured for 24 hours to make the cells adhere to the microplates, and 0.1 ml of the test compound was added in each well and incubated for 72 hours under conditions of 5% carbon dioxide at 37° C. The 50% growth inhibition concentration (GI50 value μM) was computed from the growth inhibition rates at various test sample concentrations, and the results are shown in Table 1.
(§3) When using cells other than HepG2 cells, the following culture media were used instead of the MEM culture medium, and the following single cell suspensions were prepared with the following media:
RPMI1640 culture medium containing 10% fetal bovine serum, 1×10^4 cell suspension

Hepatoma HepG2 cells = assay: In vitro anti-tumor experiment, growth inhibition of HepG2 cells; type: cell-based; conditions: Homo sapiens; HepG2, 72 hours incubation
Description: as §1, §2

[1] = tested on: PC-3 prostate cancer cells; assay: In vitro anti-tumor experiment, growth inhibition of PC-3 cells; type: cell-based; conditions: Homo sapiens; PC-3, 72 hours incubation
Description: as §1, §2, §3
PC-3 prostate cancer cells:
F12K culture medium containing 10% fetal bovine serum, 2×10^4 cell suspension

- melting point: 238 °C (dec.)
- GI50 (B16F10 melanoma cells): 270 nM
- GI50 (Hepatoma HepG2 cells): 260 nM
- GI50 [1]: 100 nM
SMILES: CC1(C)CN(c2nc(N3CCOCC3)nc(-n3c(C(F)F)nc4c(Cl)cc(N)cc43)n2)CCO1 [Compound 12, 2-(6-amino-4-chloro-2-difluoromethylbenzimidazol-1-yl)-4-(2,2-dimethylmorpholino)-6-morpholino-1,3,5-triazine]
